Data reported in patent US20200129528A1, “METHODS FOR TREATING BLOOD PRESSURE CONDITIONS USING AMINOSTEROL COMPOSITIONS” (Enterin, Inc., priority 2018, published 2020).
Entries after “also recorded” stand apart in the source; their conditions may differ.

How the values were obtained:
[1] = system: patients with PD and constipation; test: Circadian rhythm of wrist skin temperature; type: in vivo, human; settings: for circadian rhythm of wrist skin temperature (IS, RA, CFI, IV): 12 evaluable patients, fixed dose versus baseline
Method: (6) I-Button Temperature Assessment. The 1-Button is a small, rugged self-sufficient system that measures temperature and records the results in a protected memory section. The Thermochron I-Button DS1921H (Maxim Integrated, Dallas, Tex.) was used for skin temperature measurement. I-Buttons were programmed to sample every 10 mins., and attached to a double-sided cotton sport wrist band using Velcro, with the sensor face of the I-Button placed over the inside of the wrist, on the radial artery of the dominant hand. Subjects removed and replaced the data logger when necessary (i.e., to have a bath or shower). The value of skin temperature assessment in sleep research is that the endogenous skin warming resulting from increased skin blood flow is functionally linked to sleep propensity. From the collected data, the mesor, amplitude, acrophase (time of peak temperature), Rayleight test (an index of interdaily stability), mean waveforms are calculated.);
Assessments were made at baseline and at the end of the fixed dose and washout periods. Circadian system status was evaluated by continuously monitoring wrist skin temperature (Thermochron iButton DS1921H; Maxim, Dallas) following published procedures (Sarabia et al. 2008).
Circadian rhythm of skin temperature was evaluable in 12 patients (i.e., those who had recordings that extended from baseline through washout). Circadian system functionality was evaluated by continuously monitoring wrist skin temperature using a temperature sensor (Thermochron iButton DS1921H; Maxim, Dallas, Tex.) (Sarabia et al. 2008). […]
Briefly, this analysis includes the following parameters: (i) the inter-daily stability (the constancy of 24-hour rhythmic pattern over days, IS); (ii) intra-daily variability (rhythm fragmentation, IV); (iii) average of 10-minute intervals for the 10 hours with the minimum temperature (L10); (iv) average of 10-minute intervals for the 5 hours with the maximum temperature ([…]) and the relative amplitude (RA), which was determined by the difference between M5 and L10, divided by the sum of both. […]

[2] = system: patients with PD and constipation; test: Phase 2 trial Stage 2: bowel function with daily oral dosing escalated to a fixed dose; type: in vivo, human
Method: Following successful screening, all subjects underwent a 14-day run-in period where the degree of constipation was assessed through a validated daily log (Zinsmeister et al. 2013) establishing baseline CSBMs/week. Subjects with an average of <3 CSBMs/week proceeded to dosing.
(§1) In Stage 2, 34 patients were evaluated. […] This dose was then maintained (“fixed dose”) fir an additional 3-5 days.
The primary efficacy outcome variable was whether or not a subject was a “success” or “failure”. This is an endpoint based on subject diary entries for the “fixed dose” period prior to the endpoint assessment defined as average complete stool frequency increase by 1 or more over baseline, or 3 or more complete spontaneous stools/week. The subject was deemed a “success” if s/he met one or more of the criteria listed above, otherwise the subject was deemed a “failure”. The primary analysis was based on all subjects with a baseline assessment and an assessment at the end of the “fixed-dose” period and was a comparison of the proportion of successes with 0.10 (the null hypothesis corresponding to no treatment effect).
The proportion of subjects for whom the drug was a success was estimated with a binomial point estimate and corresponding 95% confidence interval. A secondary analysis compared the proportions of subjects who are deemed a success at the end of the randomized fixed-dose period between those randomized to the squalamine (ENT-01) arm and those randomized to the placebo arm. A Fisher's exact test was used to compare the proportions of subjects who were deemed a success at the end of randomization period between the two randomized arms

[3] = system: patients with PD and constipation; test: Systolic blood pressure in Stage 1 (single dose); type: in vivo, human; settings: lying position
Source text: Normalization refers to lowering high blood pressure and raising low blood pressure into normal ranges. The numbers shown in the graph represent baseline BP then highest treatment BP, both in the lying position, pre-medication. The result is significant despite the small sample size (p=0.01).

[4] = system: patients with PD and constipation; test: Phase 2 trial: adverse events in all 44 dosed patients; type: in vivo, human
Method: Fifty patients were enrolled and 44 were dosed. In Stage 1, 10 patients were dosed, 1 (10%) withdrew prior to completion and 9 (90%) completed dosing. In stage 2, 6 (15%) patients had ≥3 CSBM/week at the end of the run-in period and were excluded, 34 patients were dosed and bowel response was assessable in 31 (91%). Two patients (5.8%) were terminated prior to completion because of recurrent dizziness, and 3 others withdrew during dosing (8.8%): 2 because of diarrhea and 1 because of holiday. Fifteen patients were randomized.
Most AEs were confined to the GI tract (88% in Stage 1 and 63% in Stage 2). The most common AE was nausea which occurred in 4/10 (40%) patients in Stage 1 and in 18/34 (52.9%) in Stage 2 (Table 2). Diarrhea occurred in 4/10 (40%) patients in Stage 1 and 15/34 (44%) in Stage 2. One patient withdrew because of recurrent diarrhea. Other GI related AEs included abdominal pain 11/44 […], flatulence 3/44 (6.8%), vomiting 3/44 (6.8%), worsening of acid reflux 2/44 (4.5%), and worsening of hemorrhoids 1/44 (2.2%). […] The only other noteworthy AE was dizziness 8/44 (18%). Dizziness was graded as moderate in one patient who was receiving an alpha-adrenergic blocking agent (Terazosin). This patient was withdrawn from the study and recovered spontaneously.

[5] = set-up: species or system rats; settings: rat, in vivo
[6] = system: patients with PD and constipation; test: Phase 2 trial Stage 2: adverse events; type: in vivo, human
Method: as §1

With `CC(C)[C@@H](CC[C@@H](C)[C@H]1CC[C@H]2[C@@H]3[C@H](O)C[C@H]4C[C@@H](NCCCNCCCCN)CC[C@]4(C)[C@H]3CC[C@]12C)OS(=O)(=O)O` (single isomer, unassigned) [ENT-01, squalamine] the “circadian rhythm of wrist skin temperature (IS, RA, CFI, IV)” value [1] was “significant positive impact; also recorded: improved all markers of healthy circadian function”, the “circadian rhythm of wrist skin temperature (IS, RA, CFI, IV)” value ([1]; listed as Aminosterol) was “improved all markers of healthy circadian function” and the “circadian rhythm parameters during wash-out” value ([1]; wash-out period (IS, CFI)) was “persisted for several of these circadian parameters”. For the same compound, the “decrease of rescue medication use, baseline to fixed dose” value ([2]; Stage 2, 1.8/week to 0.3) was 83%, the “improvement of SBM, baseline to fixed dose” value ([2]; Stage 2, 2.6 to 4.5) was 73% and the “Ease of passage (Ease of evacuation scale 1-7)” value ([2]; Stage 2, at fixed dose, mean (SD), baseline 3.2, listed as aminosterol) was 3.7. For the same compound, the “effect on systolic BP” value [3] was “normalization of systolic BP”, the “outcome of all other AEs” value ([4]; human, in vivo) was “resolved spontaneously without discontinuation” and the “lower GI bleed (serious adverse event), relation to drug” value ([4]; one patient, during the withdrawal period, on aspirin, naproxen and clopidogrel) was “unrelated to study medication”. The oral bioavailability [5] was “limited bioavailability”, the “absorption from the intestine” value ([5]; po) was “low” and the “patients who withdrew during dosing because of diarrhea” value ([6]; Stage 2) was 2. For the same compound, the “Difficulty falling asleep, mild” value ([6]; Stage 2, 34 dosed) was 1(3)^ n, %, the “Eye infection, mild” value ([6]; Stage 2, 34 dosed) was 1(3)^ n, % and the “Flatulence, mild” value ([6]; Stage 2, 34 dosed) was 1(3)^ n, %. The “Urinary retention, mild” value ([6]; Stage 2, 34 dosed) was 1(3)^ n, %, the “Urinary tract infection, mild” value ([6]; Stage 2, 34 dosed) was 1(3)^ n, % and the “Worsening hemorrhoid, mild” value ([6]; Stage 2, 34 dosed) was 1(3)^ n, %.
